From patent US10961309B2, “Reducing systemic regulatory T cell levels or activity for treatment of disease and injury of the CNS” (Yeda Research and Development Co. Ltd, priority 2014, dated 2021) come the findings set out here.

For assay [1], the system named is choroid plexus leukocyte trafficking molecules (icam1, cxcl10, ccl2) and ifn-γ. As to the kind of experiment: Choroid plexus (CP) mRNA expression by RT-qPCR. The class given is in vivo, mouse. As to the method: Total RNA of the hippocampal dentate gyrus (DG) was extracted with TRI Reagent (Molecular Research Center) and purified from the lysates using an RNeasy Kit (Qiagen). Total RNA of the choroid plexus was extracted using an RNA MicroPrep Kit (Zymo Research). mRNA (1 μg) was converted into cDNA using a High Capacity cDNA Reverse Transcription Kit (Applied Biosystems). The expression of specific mRNAs was assayed using fluorescence-based quantitative real-time PCR (RT-qPCR). RT-qPCR reactions were performed using Fast-SYBR PCR Master Mix (Applied Biosystems). Quantification reactions were performed in triplicate for each sample using the standard curve method. Peptidylprolyl isomerase A (ppia) was chosen as a reference (housekeeping) gene. The amplification cycles were 95° C. for 5 s, 60° C. for 20 s, and 72° C. for 15 s. […] For ifn-γ and ppia gene analysis, the cDNA was pre-amplified in 14 PCR cycles with non-random PCR primers, thereby increasing the sensitivity of the subsequent real-time PCR analysis, according to the manufacturer's protocol (PreAmp Master Mix Kit; Applied Biosystems). mRNA expression was determined using TaqMan RT-qPCR, according to the manufacturer's instructions (Applied Biosystems). All RT-qPCR reactions were performed and analyzed using StepOne software V2.2.2 (Applied Biosystems). […]

Assay [2] relates to hippocampal gliosis (GFAP). As to the kind of experiment: GFAP immunostaining (astrogliosis). The class given is in vivo, mouse. As to the method: Tissue processing and immunohistochemistry were performed on paraffin embedded sectioned mouse (6 μm thick) and human (10 μm thick) brains. For human ICAM-1 staining, primary mouse anti-ICAM (1:20 Abcam; ab2213) antibody was used. Slides were incubated for 10 min with 3% H2O2, and a secondary biotin-conjugated anti-mouse antibody was used, followed by biotin/avidin amplification with Vectastain ABC kit (Vector Laboratories). Subsequently, 3,3′-diaminobenzidine (DAB substrate) (Zytomed kit) was applied; slides were dehydrated and mounted with xylene-based mounting solution. For tissue stainings, mice were transcardially perfused with PBS prior to tissue excision and fixation. CP tissues were isolated under a dissecting microscope (Stemi DV4; Zeiss) from the lateral, third, and fourth ventricles of the brain. […] Microscopic analysis, was performed using a fluorescence microscope (E800; Nikon) or laser-scanning confocal microscope (Carl Zeiss, Inc.). The fluorescence microscope was equipped with a digital camera (DXM 1200F; Nikon), and with either a 20× NA 0.50 or 40× NA 0.75 objective lens (Plan Fluor; Nikon). […] For quantification of staining intensity, total cell and background staining was measured using ImageJ software (NIH), and intensity of specific staining was calculated, as previously described (Burgess et al, 2010). […]

Entries after “also recorded” stand apart in the source; their conditions may differ.

In the case of Diphtheria toxin [DTx], the “CP mRNA expression of leukocyte trafficking molecules (icam1, cxcl10, ccl2)” value in assay [1] (AD-Tg/DTR+ vs DTx-treated AD-Tg/DTR− littermates, 1 day after last DTx injection) is recorded as “elevated mRNA expression”. Moreover, the “hippocampal gliosis (GFAP immunostaining)” value in assay [2] (AD-Tg/DTR+ mice, 3 weeks after last DTx injection) is “reduced astrogliosis; also recorded: reduction in hippocampal gliosis”.

Glatiramer acetate [GA]: the “CP epithelial expression of leukocyte trafficking molecules (icam1, cxcl10, ccl2)” value in assay [1] (weekly-GA, AD-Tg mice, end of 1st or 4th week) is on record as “upregulated epithelial expression of leukocyte trafficking molecules”.

With `CC1=C(/C=C/C(C)=C/C=C/C(C)=C/C(=O)O)C(C)(C)CCC1` [ATRA, All-trans retinoic acid], the gliosis in assay [2] (3 weeks after last ATRA injection, AD-Tg mice) is 2-3 fold increase.
